According to paper PMC7770212 (Journal of Psychopharmacology (Oxford, England), 2020):

Columns and labels:
AMPH-sensitized rats = experiment: Pre-pulse inhibition; assay type: in vivo, rat; conditions: HAL 0.1 mg/kg/day i.c.v. mini pump, day 7; versus AMPH-VEH
psychotic-like rats = experiment: Pilot study: continuous HAL into the lateral ventricle; assay type: in vivo, rat; conditions: data not shown
[1] = test system: striatal dopamine D2 receptors; conditions: 0.5 mg/kg/day subcutaneous delivery; ref Kapur et al., 2003; cited from earlier work

For `O=C(CCCN1CCC(O)(c2ccc(Cl)cc2)CC1)c1ccc(F)cc1` [HAL, Haloperidol], the “PPI of the acoustic startle response” value (AMPH-sensitized rats) was “clearly improved PPI”, the “alleviation of psychotic-like symptoms” value (psychotic-like rats; 0.1 mg/kg/day continuous i.c.v. versus 0.01 or 0.03 mg/kg/day) was “significantly more effective” and the extrapyramidal side effects (psychotic-like rats; 0.1 mg/kg/day continuous i.c.v.) was “without causing extrapyramidal side effects”. The “striatal dopamine D2 receptor occupancy” value [1] was 73%.
